In the NIST ThermoML archive (doi:10.1016/j.jct.2010.11.017):

Experiment: wn = mass fraction of the nth substance listed
Conditions: 101 kPa, Liquid; for viscosity: Capillary tube (Ostwald / Ubbelohde) method; for speed of sound: Frequency=3 MHz, Linear variable-path acoustic interferometer; for mass density: Pycnometric method

O=C[C@H](O)[C@@H](O)[C@H](O)[C@H](O)CO [D-glucose] + O
Conditions | mass density [kg/m3] | speed of sound [m/s] | viscosity [mPa·s]
293.15 K, w1 = 0.05 | 1016.28 | – | 1.176
293.15 K, w1 = 0.1 | 1034.79 | 1521.4 | 1.357
293.15 K, w1 = 0.15 | 1053.29 | 1532.4 | 1.541
293.15 K, w1 = 0.2 | 1072.41 | 1543.2 | 1.877
298.15 K, w1 = 0.05 | 1014.69 | 1514.3 | 0.9767
298.15 K, w1 = 0.1 | 1033.15 | 1530.6 | 1.12
298.15 K, w1 = 0.15 | 1051.61 | 1542.5 | 1.316
298.15 K, w1 = 0.2 | 1070.31 | 1553.3 | 1.67
303.15 K, w1 = 0.05 | 1013.08 | 1525.1 | 0.8605
303.15 K, w1 = 0.1 | 1031.5 | 1540.3 | 0.9907
303.15 K, w1 = 0.15 | 1049.92 | 1551.5 | 1.147
303.15 K, w1 = 0.2 | 1068.17 | 1563.1 | 1.491
308.15 K, w1 = 0.05 | 1011.47 | 1535.7 | 0.7697
308.15 K, w1 = 0.1 | 1029.84 | 1550.2 | 0.8844
308.15 K, w1 = 0.15 | 1048.37 | 1560.5 | 1.018
308.15 K, w1 = 0.2 | 1065.97 | 1573.5 | 1.345
313.15 K, w1 = 0.05 | 1009.85 | 1545.6 | 0.6945
313.15 K, w1 = 0.1 | 1028.17 | 1559.9 | 0.7901
313.15 K, w1 = 0.15 | 1046.62 | 1569.6 | 0.8925
313.15 K, w1 = 0.2 | 1063.76 | 1582.2 | 1.21
318.15 K, w1 = 0.05 | – | 1554.5 | 0.6334
318.15 K, w1 = 0.1 | 1026.48 | 1568.4 | 0.7223
318.15 K, w1 = 0.15 | 1044.93 | 1577.2 | 0.8097
318.15 K, w1 = 0.2 | 1061.52 | 1591.2 | 1.112
